In patent publication US10647680B2, “Urea compound, preparation method therefor and medical use thereof” (Ancureall Pharmaceutical (Shanghai) Co., Ltd., priority 2016, dated 2020):

Key:
HL-60 (FLT3 wild type) = assay: In vitro growth inhibition (GI50), HL-60; format: cell-based; settings: Homo sapiens, Cell lines of leukemia, read-out: GI 50 HL60 FLT3 (WT)
Source text: (§1) 1. Cell Lines and Cell Cultures
(§2) Tumor cell line is an effective cell model for studying the inhibition of tumor cell growth or proliferation in vitro. In the present invention, a representative tumor cell line was selected to determine the cell growth inhibition activity of the present compound. All cell lines used were from ATCC, DSMZ, and the Cell Bank of the Chinese Academy of Sciences. Cell culture conditions and methods were in accordance with the requirements of each cell line. Cells were subcultured in vitro for no more than 3 passages each time, and as required, single-clone purification and identification of cell lines could be carried out.
(§3) The cell culture media used were RPMI1640 (Gibco), MEM (Gibco), McCOY'S5A (Gibco), and IMDM (Gibco). The complete medium was prepared by supplement with 5˜20% fetal calf serum (Gibco), 1% double-antibiotics (10000 units/mL penicillin and 10000 units/mL), 2 mM glutamine or 1 mM sodium pyruvate, respectively.
(§4) The human acute […] monomonocyte leukemia cell line MV4-11 (FLT3 ITD+/+ mutant type, ATCC) was cultured in a complete medium comprising 1×IMDM and 10% FBS. Human acute myeloid leukemia cell line MOLM-13 (FLT3 ITD+/− mutant type, DSMZ), human acute lymphoblastic leukemia cell line RS4; 11 (FLT3 wild type, ATCC), human chronic granulocytic leukemia cell line K562 (FLT3 negative expression, positive expression of BCR-ABL fusion protein, ATCC), human promyelocytic leukemia cell line HL-60 (FLT3 wild type, ATCC), human B lymphoblastic leukemia cell line RAMOS (positive expression of Brutons tyrosine protein kinase, ATCC), human acute myeloid leukemia cell line Kasumi-1 (c-Kit N822K mutant type, ATCC), human acute monocytic leukemia cell line U937 (FLT3 wild-type, ATCC), human acute myeloid leukemia cell line OCI-AML3 (NPMc+ mutant type, ATCC), human acute myeloid leukemia cell line KG-1 (expressing FGFR1OP2-FGFR1 fusion protein, ATCC) were cultured in a complete medium comprising 1×RPMI1640 and 10% FBS, respectively.
(§5) Adherent cells were digested with 0.25% pancreatin-EDTA (Gibco). The suspension cells were collected by centrifugation. The supernatant was discarded and the cell pellet was resuspended and counted. Different cell concentrations (5˜10×10^4 cells/mL) were prepared according to the growth cycle of each cell line and then seeded on a 96-well plate (Corning), 100 μL/well. The cells were incubated overnight at 37° C., 5% CO2. The compounds were added to the cells on the second day with 2 wells in parallel. The final concentration of organic solvent shall not exceed 1%. The cells were continually incubated for 3 to 5 days, and then subjected to MTT assay.
(§6) The compound of the present invention and the control compound were dissolved in DMSO (Sigma) respectively, with the purity of more than 98%. The compound was stored in a concentration of 10 mM at −20° C. and diluted to 2- or 10-fold series prior to use.
(§7) Dojindo CCK8 reagent kit was used as MTT assay. THERMO […] FC meter was used as microplate reader.
(§8) For adherent cells, culture medium was removed and immediately replaced with the fresh prepared medium which contains 10% CCK8 reagent (100 μL/well). For the suspension cells, CCK8 was directly added to 10% of the final concentration. The cells were continually incubated for 1˜4 h. When a dark yellow color could be observed in the solvent control wells, the absorbance value at OD450 nm was measured and the cell growth rate was calculated according to the following formula: Cell Growth Rate (%)=100*(T−T0)/(C−T0) T=optical density of drug treatment cell well—optical density of blank control well; T0=optical density of cell well before drug treatment—optical density of blank control well; C=optical density of cell well of solvent control group—optical density of blank control well. The concentration value of 50% inhibition of cell growth (GI50) was calculated according to the drug concentration and cell growth rate curve. […]

[1] = system: KG-1 (expressing FGFR1OP2-FGFR1 fusion protein); assay: In vitro growth inhibition (GI50), KG-1; format: cell-based; settings: Homo sapiens; Cell lines of leukemia; read-out: GI 50 KG-1 FGFR1OP 2-FGFR1
Source text: as §1, §2, §3, §4
as §5, with “The” for “Adherent cells were digested with 0.25% pancreatin-EDTA (Gibco). The”
(§9) The compound was stored in a concentration of 10 mM at −20° C. and diluted to 2- or 10-fold series prior to use.
(§10) Dojindo CCK8 reagent kit was used as MTT assay. […] FC meter was used as microplate reader.
(§11) For adherent cells, culture medium was removed and immediately replaced with the fresh prepared medium which contains 10% CCK8 reagent (100 μL/well). For the suspension cells, CCK8 was directly added to 10% of the final concentration. The cells were continually incubated for 1˜4 h. […] The experiment was independently repeated 1˜3 times, and subject to biological statistical analysis. 4. Experimental Results
(§12) The initial concentration of the compound was 5,000 nM, then it was serially diluted by 2-fold or 10-fold to 0.01 nM. The GI50 value of each test compound was calculated according to the GI50 assay and calculation method. The experiments were repeated 1 to 3 times, and data were subjected to biological statistical analysis.

[2] = system: RAMOS (positive expression of Brutons tyrosine protein kinase); assay: In vitro growth inhibition (GI50), RAMOS; format: cell-based; settings: Homo sapiens, Cell lines of leukemia, read-out: GI 50 Ramos BTK
Source text: as §1, §2, §3, §4
as §5, with “The” for “Adherent cells were digested with 0.25% pancreatin-EDTA (Gibco). The”
as §9, §10, §11, §12

[3] = system: MOLM-13 (FLT3 ITD+/− mutant type); assay: In vitro growth inhibition (GI50), MOLM-13; format: cell-based, human; settings: Homo sapiens, MOLM-13; Cell lines of leukemia; read-out: GI 50 MOLM-13 FLT3 (ITD+/−)
Source text: as §1, §2, §3, §4
as §5, with “The” for “Adherent cells were digested with 0.25% pancreatin-EDTA (Gibco). The”
as §9, §10, §11, §12

RS4; 11 (FLT3 wild type) = assay: In vitro growth inhibition (GI50), RS4; 11; format: cell-based, human; settings: Homo sapiens, RS4-11; Cell lines of leukemia; read-out: GI 50 RS4: 11 FLT3 (WT)
Source text: as §1, §2, §3, §4
as §5, with “The” for “Adherent cells were digested with 0.25% pancreatin-EDTA (Gibco). The”
as §9, §10, §11, §12

[4] = system: K562 (FLT3 negative expression, positive expression of BCR-ABL fusion protein); assay: In vitro growth inhibition (GI50), K562; format: cell-based; settings: Homo sapiens, Cell lines of leukemia, read-out: GI 50 K562 BCR-ABL
Source text: as §1, §2, §3, §4
as §5, with “The” for “Adherent cells were digested with 0.25% pancreatin-EDTA (Gibco). The”
as §9, §10, §11, §12

U937 (FLT3 wild-type) = assay: In vitro growth inhibition (GI50), U937; format: cell-based; settings: Homo sapiens, U-937; Cell lines of leukemia; read-out: GI 50 U937 FLT 3(WT)
Source text: as §1, §2, §3, §4
as §5, with “The” for “Adherent cells were digested with 0.25% pancreatin-EDTA (Gibco). The”
as §9, §10, §11, §12

[5] = system: MV4-11 (FLT3 ITD+/+ mutant type); assay: In vitro growth inhibition (GI50), MV4-11; format: cell-based, human; settings: Homo sapiens, MV4-11; Cell lines of leukemia; read-out: GI 50 MV4-11 FLT3 (ITD +/+)
Source text: as §1, §2, §3, §4
as §5, with “The” for “Adherent cells were digested with 0.25% pancreatin-EDTA (Gibco). The”
as §9, §10, §11, §12

[6] = system: Kasumi-1 (c-Kit N822K mutant type); assay: In vitro growth inhibition (GI50), Kasumi-1; format: cell-based; settings: Homo sapiens, Cell lines of leukemia, read-out: GI 50 Kasumi-1 Kit (N822K)
Source text: as §1, §2, §3, §4, §5, §6, §7, §8

[7] = system: OCI-AML3 (NPMc+ mutant type); assay: In vitro growth inhibition (GI50), OCI-AML3; format: cell-based; settings: Homo sapiens, OCI-AML-3; Cell lines of leukemia; read-out: GI 50 OCI- AML3 NPMc+
Source text: as §1, §2, §3, §4
as §5, with “The” for “Adherent cells were digested with 0.25% pancreatin-EDTA (Gibco). The”
as §9, §10, §11, §12

Row | GI50 (HL-60 (FLT3 wild type)) [µM] | GI50 [2] [µM] | GI50 [3] [µM] | GI50 (RS4; 11 (FLT3 wild type)) [µM] | GI50 [4] [µM] | GI50 (U937 (FLT3 wild-type)) [µM] | GI50 [5] [µM] | GI50 [7] [µM] | Compound | GI50 [1] [µM] | GI50 [6] [µM]
1 | > 1 | > 1 | 0.1 to 1 | > 1 | > 1 | > 1 | 0.1 to 1 | > 1 | Nc1cc(C2CC2)nn1C(=O)Nc1ccc(-n2cnc3ccccc32)cc1 [Compound 114, 5-amino-3-cyclopropylpyrazol-1-formic acid (4-benzimidazol-1-yl-phenyl)-amide] | > 1 | > 1
2 | > 1 | > 1 | 0.0001 to 0.001 | > 1 | > 1 | > 1 | 0.0001 to 0.001 | > 1 | CC1(COc2ccc3c(c2)ncn3-c2ccc(NC(=O)Nc3cc(C(C)(C)C)n[nH]3)cc2)COC1 [Compound 85, 1-(5-tert-butyl-2H-pyrazol-3-yl)-3-{4-[5-(3-methyl-oxetane-3-ylmethoxy)-benzimidazol-1-yl]-phenyl]urea] | > 1 | > 1
3 | > 1 | > 1 | > 1 | > 1 | > 1 | > 1 | > 1 | > 1 | CC(C)(C)c1cc(NC(=O)Nc2ccc(-n3ccc4ccccc43)cc2)no1 [Compound 44, 1-(5-tert-butyl-isoxazol-3-yl)-3-(4-indol-1-yl-phenyl)-urea] | > 1 | > 1
4 | > 1 | > 1 | 0.001 to 0.01 | 0.1 to 1 | 0.1 to 1 | > 1 | 0.001 to 0.01 | > 1 | CCOC(=O)c1ccc(-n2nc(C(C)(C)C)cc2NC(=O)Nc2ccc(-n3cnc4ccccc43)cc2)cc1 [Compound 111, ethyl 4-{5-[3-(4-benzimidazol-1-yl-phenyl)-carbamido]-3-tert-butyl-pyrazol-1-yl}-benzoate] | > 1 | > 1
5 | 0.1 to 1 | 0.1 to 1 | 0.0001 to 0.001 | 0.1 to 1 | 0.1 to 1 | 0.1 to 1 | 0.0001 to 0.001 | > 1 | O=C(Nc1ccc(-n2cnc3ccccc32)cc1)Nc1cc(C(F)(F)F)n[nH]1 [Compound 67, 1-(4-benzimidazol-1-yl-phenyl)-3-(5-trifluoromethyl-2H-pyrazole-3-yl)-urea] | 0.1 to 1 | 0.1 to 1
6 | > 1 | > 1 | 0.1 to 1 | > 1 | > 1 | > 1 | 0.1 to 1 | > 1 | Cc1noc(NC(=O)Nc2ccc(-n3cnc4ccccc43)cc2)c1C [Compound 131, 1-(4-benzimidazol-1-yl-phenyl)-3-(3,4-dimethyl-isoxazol-5-yl)-urea] | > 1 | > 1
7 | > 1 | > 1 | 0.01 to 0.1 | > 1 | > 1 | > 1 | 0.01 to 0.1 | > 1 | CN1CCN(c2ccc3ncn(-c4ccc(NC(=O)Nc5cc(C(C)(C)C)on5)cc4)c3c2)CC1 [Compound 29, 1-(5-tert-butyl-isoxazol-3-yl)-3-{4-[6-(4-methyl-piperazin-1-yl)-benzimidazol-1-yl]-phenyl}-urea] | > 1 | > 1
8 | > 1 | > 1 | 0.0001 to 0.001 | > 1 | > 1 | > 1 | 0.0001 to 0.001 | > 1 | CC(C)(C)c1cc(NC(=O)Nc2ccc(-n3cnc4cc(OCCN5CCCCC5)ccc43)cc2)[nH]n1 [Compound 90, 1-(5-tert-butyl-2H-pyrazol-3-yl)-3-{4-[5-(2-piperidin-1-yl-ethoxyl)-benzimidazol-1-yl]-phenyl}-urea] | > 1 | > 1
9 | > 1 | > 1 | > 1 | > 1 | > 1 | > 1 | > 1 | 0.1 to 1 | CCOC(=O)COc1ccc2c(c1)ncn2-c1ccc(NC(=O)n2nc(C(C)(C)C)cc2N)cc1 [Compound 124, ethyl (1-{4-[(5-amino-3-tert-butyl-pyrazol-1-carbonyl)-amino]-phenyl}-1H-benzimidazol-5-yloxy)-acetate] | > 1 | > 1

Row | Compound | GI50 (HL-60 (FLT3 wild type)) [µM] | GI50 [2] [µM] | GI50 [3] [µM] | GI50 (RS4; 11 (FLT3 wild type)) [µM] | GI50 [4] [µM] | GI50 (U937 (FLT3 wild-type)) [µM] | GI50 [5] [µM] | GI50 [7] [µM] | GI50 [1] [µM] | GI50 [6] [µM]
10 | CCC(C)Oc1ccc2c(c1)ncn2-c1ccc(NC(=O)Nc2cc(C(C)(C)C)n[nH]2)cc1 (stereo not shown) [Compound 75, 1-[4-(5-sec-butoxy-benzimidazol-1-yl)-phenyl]-3-(5-tert-butyl-2H-pyrazol-3-yl)-urea] | > 1 | > 1 | 0.0001 to 0.001 | > 1 | > 1 | > 1 | 0.0001 to 0.001 | > 1 | > 1 | > 1
